Laboratory results reported in patent US20110142866A1, “PEPTIDE ANALOGUES AND CONJUGATES THEREOF” (Eldrug S.A., priority 2007, published 2011).
“Also recorded” adds a separate entry of the source. Positions of bridges follow the written chain, without caps; N, C: chain ends. No end group written: not given here.

Tests used:
[1] = system: IFN-γ secretion by T cells; experiment: IFN-γ ELISpot of spleen cells from immunized mice; format: in vivo, SJL/J mice; details: for cross-reaction of IFN-γ producing T cells with native MBP87-99 peptide: recall peptide native MBP87-99
Experimental: (§1) Female 6-8 week old SJL/J mice used in all experiments, were purchased from Walter and Eliza Hall Institute (VIC Australia) and housed at the Biological Research Laboratory at Burnet Institute at Austin, Heidelberg, Australia. SJL/J mice were immunized twice on days 0, 14 intradermally (base of tail) with 50 μg MBP83-99 peptide analogue-KLH-reduced mannan.
(§2) ELISpot analyses specific T cell responses to antigens by detecting the secretion of specific cytokines. Spleen cells from immunized SJL/J mice were isolated 14 days after immunization and assessed by ELISpot for IFN-γ, IL-4 or IL-10 secretion by T cells. IFN-γ ELISpot assay was performed on MultiScreen-IP Filter Plate (MAIP S4510) with hydrophobic PVDF filters (Millipore, UK) while IL-4 and IL-10 ELISpot was performed on MultiScreen-HA Filter Plate (MAHA S4510) with mixed cellulose esters filters (Millipore, UK). MAIP S4510 plates were pre-wet with 50 μl of 70% ethanol, washed 5 times with 200 μl sterile PBS and coated with 70 μl of 5 μg/ml anti-IFN-γ capture antibody, AN18 (Mabtech, Australia) in PBS and left to incubate at 4° C. O/N. While 70 μl of 5 μg/ml anti-IL-4 and anti-IL-10 capture antibody (Mabtech, Australia) was added directly to MAHA S4510 plates and incubated at 4° C. O/N without 70% ethanol treatment. Following 5 washes with PBS, plates were blocked by adding 200 μl of culture media (supplemented with 2.5% FCS) and incubated for 2 hours at 37° C. The blocking media was discarded and 10 μg/ml recall peptides (MBP83-99 peptide analogues not conjugated to KLH-reduced mannan) were added into each defined well. Con A (1.0 μg/ml; IL-4 and IFN-γ) or LPS (1.0 μg/ml; IL-10) were used as an internal positive controls and no peptide was used as negative control. Triplicate wells were set up for each condition. 5×10^5 spleen cells in 100 μl culture media were seeded into each well and incubated for 18 hours for IFN-γ, 24 hours for IL-4 and 48 hours for IL-10 at 37° C. Plates were washed 5 times PBS/0.05% Tween 20 and 5 times PBS and incubated for 2 hours at RT with anti-murine IFN-γ, IL-4 or IL-10 monoclonal antibody-biotin. Plates were washed and streptavidin-ALP was added at 1.0 μg/ml and incubated for 2.0 hours at RT. Spots of activity were detected using a colorimetric AP kit (Biorad, Hercules, Calif. USA) and counted using an AID ELISpot plate reader (Autoimmun Diagnostika GmbH, Germany). Data are presented as mean spot forming units (sfu) per 0.5×10^6 cells +/−standard error of the mean (SEM).
(§3) MBP87-99, [R^91, A^96]MBP87-99 or [A^91, A^96]MBP87-99 peptides were dissolved in PBS and emulsified in an equal volume of complete Freund's adjuvant (CFA) which contained 1.0 mg/ml of heat killed Mycobacterium tuberculosis H37RA (Sigma, Victoria, Australia). SJL/J mice were given one subcutaneous injection containing 50 μg peptide into the base of tail.
(§4) SJL/J mice were immunized twice on days 0 and 14 intradermally (base of tail) with 50 μg MBP87-99-KLH-reduced mannan, [R^91, A^96]MBP87-99-KLH-reduced mannan or [A^91, A^96]MBP87-99-KLH-reduced mannan conjugates.
(§5) ELISpot detects specific T cell responses to antigens by measuring the secretion of specific cytokines from individual cells. Spleen cells from immunized SJL/J mice were isolated 28 days after CFA immunization or 14 days after the last immunization with reduced mannan-peptides and assessed by ELISpot for IFN-γ and IL-4 secretion by T cells. IFN-γ ELISpot assay was performed on MultiScreen-IP Filter Plate (MAIP S4510) with hydrophobic PVDF filters (Millipore, UK), while IL-4 ELISpot assays were performed on MultiScreen-HA Filter Plate (MAHA S4510) with mixed cellulose esters filters (Millipore, UK). MAIP S4510 plates were pre-weted with 50 μl of 70% ethanol, washed 5 times with 200 μl of sterile phosphate-buffered saline (PBS) and coated with 70 μl of 5 μg/ml anti-IFN-γ capture antibody, AN18 (Mabtech, Australia) in PBS and incubated O/N at 4° C. […]

[2] = system: IL-4 secretion by T cells; experiment: IL-4 ELISpot of spleen cells from immunized mice; format: in vivo, SJL/J mice
Experimental: as §1, §2, §3, §4, §5

[3] = system: respective peptides conjugated to BSA or KLH; experiment: ELISA total IgG antibody responses to the respective peptide; format: in vivo, SJL/J mice
Experimental: (§6) Blood was collected and sera isolated from mice prior to and 4 weeks after immunization with CFA or 14 days after the last immunization with reduced mannan conjugates. MBP87-99 or [A^91, A^96]MBP87-99 peptides conjugated to BSA or KLH were coated onto polyvinyl chloride (PVC) microtiter plates at 10 μg/ml in 0.2 M NaHCO3 buffer, pH 9.6, 0/N at 4° C. Non-specific binding was blocked with 2% BSA for 1.0 h at RT. After washing (0.05 Tween 20/PBS), serial dilutions of sera were added and incubated for a further 2 h at RT. The plates were washed and bound antibody was detected using HRP-conjugated sheep anti-mouse antibody (1/1000 dilution in PBS) (Amersham, UK) and developed using 2,2′-azino-di(3-ethylbenzthiazoline)6-sulfonic acid (ABTS) (Sigma, UK). Absorbance at 405 nm was recorded using a Fluostar Optima microplate reader (BMG labtech, Offenburg, Germany).
(§7) ELISpot assays for IFN-γ and IL-4 secretion by T cells and ELISA assays for binding of sera to native MBP protein or peptide were carried out as previously described^3, 4, 20, 21. Mean values were compared using the Student's two-tailed t-test. P value threshold of p<0.01 indicates a statistically significant difference.

native MBP87-99 peptide = experiment: ELISA cross reaction of sera with native MBP87-99 peptide; format: in vivo; details: 1/500 and 1/1,000 sera dilutions
Experimental: as §6, §7

MBP72-85 induced EAE = experiment: Induction-inhibition of MBP-EAE in Lewis rats; format: in vivo; details: co-injection (500 μg) with MBP72-85 (25 μg)
[4] = 50 μg peptide conjugated to reduced mannan, two intradermal injections, spleen cells 14 days post-immunization
[5] = 50 μg peptide emulsified in CFA, one injection, spleen cells 28 days
[6] = peptide conjugated to reduced mannan

Substance | IFN-γ secreting T cells (in words) [1, 4] | IFN-γ secreting T cells (in words) [1, 5] | cross-reaction of IFN-γ producing T cells with native MBP87-99 peptide [1, 6] | cross-reaction of IFN-γ producing T cells with native MBP87-99 peptide ([1]; peptide emulsified in CFA) | IL-4 secreting T cells (in words) [2, 4] | IL-4 secreting T cells (in words) [2, 5] | IgG antibody responses (in words) ([3]; peptide emulsified in CFA) | cross-reaction of antibodies with native MBP87-99 peptide (native MBP87-99 peptide; [6]) | cross-reaction of antibodies with native MBP87-99 peptide (native MBP87-99 peptide; peptide emulsified in CFA) | IgG antibody responses (in words) [3, 6] | inhibition of EAE (MBP72-85 induced EAE) | also measured
VHFFANIVTARTP [[A^91, A^96]MBP87-99] | no IFN-γ was detected | strong levels | did not cross-react | did not cross-react | high levels | high levels | No IgG antibody levels | did not cross-react | did not cross-react | – | – | –
VHFFKNIVTPRTP [MBP87-99, reference compound] | high levels | high levels | – | – | did not induce; also recorded: No detectable | did not induce; also recorded: No detectable | very low levels and Low | – | – | higher levels | – | –
VHFFRNIVTARTP [[R^91, A^96]MBP87-99] | – | – | – | – | very high | low levels | – | – | – | – | – | decrease of IFN-γ relative to native MBP87-99 [1, 6]: 70%; decrease of IFN-γ relative to native MBP87-99 ([1]; peptide emulsified in CFA): 30%; inhibition of EAE (MBP72-85 induced EAE; listed as [Arg^91, Ala^96]MBP87-99): completely prevented the development of EAE; inhibition of EAE (MBP72-85 induced EAE; listed as [Arg^91,Ala^96]MBP87-99): completely prevented the induction of EAE
Val-His-Phe-Phe-Lys^91-Asn-Ile-Val-Thr-Ala^96-Arg-Thr-Pro^99 (VHFFKNIVTARTP; lactam 5-C) [cyclo(91-99)[Ala^96] MBP87-99] | – | – | – | – | – | – | – | – | – | – | low inhibitory activity | –
Val^87-His-Phe-Phe-Arg^91-Asn-Ile-Val-Thr-Ala^96-Arg-Thr-Pro^99 [cyclo(87-99)[Arg^91, Ala^96] MBP87-99] | – | – | – | – | – | – | – | – | – | – | strong inhibitor of EAE | inhibition of EAE (MBP72-85 induced EAE; listed as cyclo(87-99)[Arg^91,Ala^96]MBP87-99): completely prevented the induction of EAE
cyclo, head-to-tail, VHFFANIVTARTP (VHFFXNIVTXRTP; cyclised or stapled) [cyclo(87-99)[A^91, A^96]MBP87-99] | reduce IFN-γ production | reduce IFN-γ production | did not cross-react | did not cross-react | moderate levels | moderate levels | no IgG antibodies | did not react | did not react | higher levels | – | decrease of IFN-γ compared to linear MBP87-99 conjugated to reduced mannan [1, 6]: ~50%; decrease of IFN-γ compared to linear MBP87-99 emulsified in CFA [1, 6]: ~70%; decrease of IFN-γ compared to the same peptide emulsified in CFA [1, 6]: ~50%
